The record followed here is US20220031690A1, “ANTI-NEURODEGENERATIVE DISEASE AGENT” (Hayashibara Co., Ltd., priority 2018, published 2022).

Series [1] deals with PC12-HS cells. The series can be described thus: Intracellular ROS production after hydrogen peroxide stimulation (CM-H2DCFDA). The following applies: for intercellular ROS production (%): 50 μM hydrogen peroxide only = 100%; for inhibitory effect on intercellular ROS production (in words): 125 to 1,000 nM. The class given is cell-based, rat. The text has this:
From the above-mentioned Experiment 1-1 and Experiment 1-2, it was shown that NK-5 (Chemical formula 2), NK-5 analogs (Chemical formula 3 and Chemical formula 5) and NK-6 (Chemical formula 7) have strong neurocyte growth acceleration activity and neurite-outgrowth promoting activity, and therefore, it was verified by the following experiment whether these compounds also act effectively on oxidative damage to neurocyte. That is, PC12-HS cells were oxidatively stimulated with hydrogen peroxide, and the intracellular ROS generated at that time was quantified using a fluorescent reagent, and the inhibitory effect of the dye compounds on intercellular ROS production, when an external oxidative stress was applied, was evaluated.
Similar to Experiment 1-1 and Experiment 1-2, precultured PC12-HS cells were cultured for 24 hours with test compounds diluted in culture medium at final concentrations of 125, 250, 500 and 1000 nM. Thereafter, the culture supernatant was removed, the cells were washed with Hank's buffer (60 μM CaCl2), 400 μM MgSO4, 500 μM MgCl2), and then 100 μl of ROS detection reagent CM-H2DCFDA (commercialized by FUJIFILM Wako Pure Chemical Corporation, Tokyo, Japan) adjusted to 5 μM with the same buffer, was added to each well. The PC12-HS cells were cultured at 37° C. for 30 minutes to allow the cells to take up CM-H2DCFDA, and then, the solution containing CM-H2DCFDA was removed. Then, the cells were washed with Hank's buffer, and then added 50 μM of hydrogen peroxide (commercialized by FUJIFILM Wako Pure Chemical Corporation, Tokyo, Japan) diluted with Hank's buffer in a volume 100 μl/well and stimulated at 37° C. for 2 hours. The solution containing hydrogen peroxide was removed, then an 200 μl of Hank's buffer was added to each well, and the cells were measured for fluorescent intensity at a wavelength of 492-527 nm, which is an index of intracellular ROS production, by a fluorescence microplate reader. In addition, after measuring the fluorescence intensity, the cells were fixed by adding 20 μl of glutaraldehyde to each well, and the amount of methylene blue dye uptake was measured as an absorbance at 650 nm, according to a conventional method, the result was used as an index of the number of living cells. The amount of ROS production per cell was indicated by the value that fluorescence intensity (492-527 nm) was divided by the absorbance at 650 nm in each well. The amount of ROS production per cell calculated from cells to which only hydrogen peroxide was added without containing the test compound as a negative control, was set as 100%, and the relative value when the test compound was added was determined, and is shown in Table 3, as the ROS production rate (%) per cell of each well. Measurements were performed for each concentration of each test compound in triplicate, and the mean values were described.

Series [2] relates to PC12-HS cells. The series can be described thus: Evaluation method A: neurocyte growth acceleration activity (Alamar blue). It counts as cell-based, rat. Conditions: for Cell proliferation rate (%): negative control = 100%; for Action on PC12-HS growth acceleration (50 ng/ml): 3 days culture, class of cell proliferation rate vs negative control = 100%; for neurocyte growth acceleration activity (in words): 40, 200 and 1,000 nM, comment on Table 2; for cytotoxicity to PC12-HS cells: concentration range tested. From the text:
As a model of the nerve cell, the NGF (nerve growth factor) highly sensitive strain of PC12 cell derived from the rat adrenal pheochromocytoma (hereinafter referred to as “PC12-HS cell”; JCRB cell bank, National Research and Development Institute of Health and Nutrition), which has been widely used as a suitable model for research on human neurodegenerative disease, was used. As the test compound, […] of trimethine cyanine dye compounds; NK-5 (Chemical formula 2), NK-36 (Chemical formula 3), NK-44 (Chemical formula 5) and dye compounds represented by Chemical formulae 12 to 18, and NK-6 (Chemical formula 7), which is a monomethine cyanine dye, were selected. In addition, two kinds of ethylene cross-linked dyes (Chemical formulae 19 and 20), 15 kinds of monomethine cyanine dyes (Chemical formulae 21 to 35), and seven kinds of trimethine cyanine dyes (Chemical formulae 36 to 42), which were expected to have a good neurocyte growth acceleration activity and/or neurite-outgrowth promoting activity in the screening disclosed in Patent literature 6, were also re-evaluated for comparison. The Chemical formulae 12 to 42 are shown below.
The cyanine dye compounds subjected to the test (purity 97% by mass or more, synthesized by Hayashibara Co., Ltd., Okayama, Japan) were individually dissolved in DMSO (product number “D8418”, commercialized by SIGMA Corporation) at a concentration of 5 mg/ml, and the solutions were then filtered through DMSO-resistant membrane (“Millex-LGS LLG025SS”, commercialized by Millipore Corporation) and stored at 25° C. in a dark condition. At the time of use, they were further diluted with Dulbecco's Medium (hereinafter, abbreviated as “D-MEM medium”, commercialized by Nissui Pharmaceutical Co., Ltd.) supplemented by 10% by volume of fetal bovine serum (FBS), and subjected to the test.
PC12-HS cells were subjected to tests after frozen stock cultured cells were thawed and cultured with a D-MEM medium supplemented with 10% by volume of FBS (Hereinafter, when the term “culture” is simply used, it means that the cells are statically cultured in an incubator controlled at 37° C. under 5% by volume of CO2 conditions). Cells used in the test were collected using 0.25% by weight of trypsin solution, then diluted with a D-MEM medium supplemented with 10% by volume of FBS (hereinafter referred to as “culture medium”), seeded into collagen-coated 96-well plates (commercialized by Falcon, Tokyo, Japan, “Microtest Plate, Cell Culture, Flat Bottom”) to obtain 5×10^3 cells/100 μl/well, and cultured for 24 hours (hereinafter referred to as “pre-culture”). Then, the above test samples were diluted with a culture medium, and 100 μl of diluted solution of the test compounds were added to each well so that the final concentration of the test compounds in the wells became 50 ng/ml, and the cells were cultured for another three days. On day 3, the cultures supernatant was removed from each well, 200 μl of culture medium containing 10% by volume of Alamar blue reagents (commercialized by Trek Diagnostic Systems Inc., Ohio, USA) were added to each well, and the cells were cultured for 6 hours. After culturing for 6 hours, the cells were measured for fluorescent intensity at a wavelength of 544-590 nm by “FlexStation 3”, a product name of a fluorescent plate reader (commercialized by Japan Molecular Devices Corporation, Tokyo, Japan). […] Measurements were performed for each test compound in triplicate, and the mean values were shown.
The method was based on Experiment 1-1, except the concentrations of the test compounds were set to three doses of 40 nM, 200 nM and 1,000 nM for evaluation method A (neurocyte growth accelerating effect), and two doses of 200 nM and 1,000 nM for evaluation method B (neurite outgrowth promoting effect). […]
In general terms: The colour change of resazurin is a common sign of viable cells or microbes.

For the compound `CCN1C=CC(=Cc2cc[n+](CC)c3ccccc23)c2ccccc21.[I-]` [NK-6], the “intercellular ROS production (%)” value is listed as 108.6% in series [1] (125 nM), 81.2% in series [1] (250 nM), 69.8% in series [1] (500 nM) and 66.2% in series [1] (1,000 nM). The “inhibitory effect on intercellular ROS production (in words)” value (“inhibitory effect” for short) in series [1] is given as “suppressed the intercellular ROS production induced by hydrogen peroxide stimulation, in a concentration-dependent manner”. For the same compound, the “Cell proliferation rate (%)” value was found to be 141.9% in series [2] (1.000 nM), 105.0% in series [2] (40 nM) and 117.0% in series [2] (200 nM). For the same compound, the “Action on PC12-HS growth acceleration (50 ng/ml)” value (“Action” below) in series [2] is “◯ (the relative value of 130% to 169% was judged to be equivalent to NK-4 (“circle”))”. Further, the “neurocyte growth acceleration activity (in words)” value in series [2] was “slightly weaker than that of NK-4”. Besides, the “cytotoxicity to PC12-HS cells” value in series [2] is listed as “do not show cytotoxicity”.

`CCN1C=CC(=CC=Cc2cc[n+](CC)c3ccccc23)c2ccccc21.[Br-]` [NK-36]: the “intercellular ROS production (%)” value in series [1] (125 nM) was 88%; in series [1] (250 nM) it was 43.5%; in series [1] (500 nM) it was 51%; in series [1] (1,000 nM) it was 8.3%. Further, the “inhibitory effect” value in series [1] is “suppressed the intercellular ROS production induced by hydrogen peroxide stimulation, in a concentration-dependent manner”. In addition, the “Cell proliferation rate (%)” value in series [2] (1.000 nM) is 137.2%; in series [2] (40 nM) it was 123.0%; in series [2] (200 nM) it was 115.5%. In addition, the “Action” value in series [2] is on record as “◯ (the relative value of 130% to 169% was judged to be equivalent to NK-4 (“circle”))”. For the same compound, in series [2], the “neurocyte growth acceleration activity (in words)” value is listed as “slightly weaker than that of NK-4”. The “cytotoxicity to PC12-HS cells” value in series [2] is “do not show cytotoxicity”.

For the compound `CCCCN1C=CC(=CC=Cc2cc[n+](CCCC)c3ccccc23)c2ccccc21.[I-]` [NK-44], the “intercellular ROS production (%)” value in series [1] (125 nM) was determined as 75.4%; in series [1] (250 nM), 65.11%; in series [1] (500 nM), 34.1%; in series [1] (1,000 nM), 27.1%. The “inhibitory effect” value in series [1] is “suppressed the intercellular ROS production induced by hydrogen peroxide stimulation, in a concentration-dependent manner”. For the same compound, the “Cell proliferation rate (%)” value in series [2] (1.000 nM) was 78.5%; in series [2] (40 nM), 193.4%; in series [2] (200 nM), 154.3%. In series [2] (40 nM), the “cell proliferation relative to the negative control” value is on record as “about 1.9 times”. Moreover, in series [2], the “Action” value is on record as “⊚ (170% or higher was judged to be significantly stronger than NK-4 (“double circle”))”. Further, the “neurocyte growth acceleration activity (in words)” value in series [2] is listed as “strongest activity”. In addition, the “cytotoxicity to PC12-HS cells” value in series [2] is “do not show cytotoxicity”.
